The text below walks through data of patent publication US20250129086A1, “COMPOUND FOR DEGRADING EGFR PROTEIN AND USE THEREOF” (TYK MEDICINES, INC., priority 2021, published 2025).

Each structure is given as a SMILES string.

Common to all, as to type: cell-based, human
Test [1] concerns H1975 (EGFR L858R/T790M double mutation). In words: Cell antiproliferative assay (CTG, 72 h), H1975. To be noted: Table 2, H1975 cells. Here is the method:
(§1) Test Example 1 Cell Antiproliferative Assay
(§2) H1975: with EGFR: L858R/T790M double mutation; PC-9 with EGFR exon 19 deletion, HCC827 with exon 19 deletion mutation. CellCounting-Lite2.0, Trypsin EDTA, 37° C. CO2 incubator, cell counter, EnVision Serial No.1050454. II. Experimental preparation:
(§3) • (A) Trypsin EDTA was used to digest log-phase cells, medium was added to terminate the reaction, and a cell suspension was made by blowing and mixing with a pipette. • (B) Cell concentration was determined using Vi-cell, and a suspension of 15,000-25,000 cells per milliliter was made depending on the purpose of the experiment and the characteristics of the cells. • (C) After the cell suspension was prepared, it was gently mixed and 100 microliters per well was added so that the density of cells to be tested was 1500-2500 per well.
(§4) • (A) About 2 mg of compound was weighed, and the volume of DMSO required was calculated according to the formula: compound mass (mg)*compound purity (%)/compound molecular weight*1000 • (B) The inoculated cell culture plates were incubated in an incubator and the compounds with concentration gradient were added after about 24 hours. • (C)10 Mm of compound stock solution was diluted to […] with medium, and 50 Mm of compound solution was added sequentially to the second column of the deep-well plate, and […] of medium containing 0.5% DMSO was added to the third to eleventh columns. • (D) Gradient dilution: 125 μl of solution was pipetted from the second column and added to the third column, after mixing; another 125 μl of solution was pipetted from the third column and added to the fourth column, and the operation was repeated until the tenth column. • (E)25 μl of compound was pipetted from the deep-well plate into a 96-well culture plate using a multichannel pipette, and each compound was repeated three times on the 96-well plate. A maximum concentration of 10,000 nm with concentration gradient of 1:4 was eventually formed on the 96-well plate.
(§5) • (A)96-well plates were incubated in an incubator for 72 h. The effect of the compounds was observed under an inverted microscope. • (B)25 μl of CTG solution was added to each well, the plate was put on shaker for 10 minutes and the […] of each well was read.
(§6) The cell viability rate (% Cell Viability) was calculated using the following formula: • % Cell Viability=100%×(Lum_Sample-Lum_LC)/(Lum_HC-Lum_LC) • Lum_HC: Cell reading of 0.1% DMSO control • Lum_Sample: Cell reading with compound added • Lum_LC: Reading of Blank media • IC50 values were obtained by curve fitting with GraphPad Prism 8 software.

Test [2] concerns HCC827 (exon 19 deletion mutation). Description: Cell antiproliferative assay (CTG, 72 h), HCC827. To be noted: Homo sapiens, HCC827, 72 h, Table 2, HCC827 cells. Here is the method:
as §1, §2, §3, §4, §5, §6

For test [3], the system named is PC-9 (EGFR exon 19 deletion). Description: Cell antiproliferative assay (CTG, 72 h), PC-9. To be noted: Homo sapiens, PC-9, 72 h, Table 2, PC-9 cells. The procedure: as §1, §2, §3, §4, §5, §6

With `COc1cc(N2CCN(CCC3CCN(c4ccc5c(c4)C(=O)N(C4CCC(=O)NC4=O)C5=O)CC3)CC2)ccc1Nc1ncc(Cl)c(Nc2ccccc2C(C)=O)n1` (stereo not drawn) [Compound T-212], the IC50 (in general, the concentration needed to halve the response being measured) was 100 to 1000 nM in test [1] (Homo sapiens, NCI-H1975, 72 h); 100 to 1000 nM in test [2]; at least 1000 nM in test [3].
For `COc1cc(N2CCN(C(=O)CN3CCC(c4ccc(NC5CCC(=O)NC5=O)cc4)CC3)CC2)ccc1Nc1ncc(C(F)(F)F)c(Nc2ccccc2C(=O)NC2CCCC2)n1` (stereo not drawn) [Compound T-343], the IC50 in test [1] (Homo sapiens, NCI-H1975, 72 h) is 10 to 100 nM; in test [2] it was 10 to 100 nM; in test [3] it was 10 to 100 nM.
Regarding `C=CC(=O)Nc1cc(Nc2ncc(C(F)(F)F)c(Nc3ccccc3)n2)c(OC)cc1N(C)CCN(C)C(=O)CN1CCC(c2ccc(NC3CCC(=O)NC3=O)cc2)CC1` (stereo not drawn) [Compound T-180], the IC50 in test [1] (Homo sapiens, NCI-H1975, 72 h) is 100 to 1000 nM; in test [2], at least 1000 nM; in test [3], at least 1000 nM.
Consider `COc1cc(N2CCN(C(=O)CC3(F)CCN(c4ccc(NC5CCC(=O)NC5=O)cc4)CC3)CC2)ccc1Nc1ncc(Cl)c(Nc2ccccc2C(C)=O)n1` (stereo not drawn) [Compound T-303], for which the IC50 in test [1] (Homo sapiens, NCI-H1975, 72 h) fell in the range of 10 to 100 nM; in test [2], 10 to 100 nM; in test [3] it was 10 to 100 nM.
Take `COc1cc(N2C[C@H]3CN(C(=O)CN4CCN(c5ccc(NC6CCC(=O)NC6=O)cc5)CC4)C[C@H]3C2)ccc1Nc1ncc(Cl)c(Nc2ccccc2C(C)=O)n1` (stereo partly drawn) [Compound T-189]: the IC50 in test [1] (Homo sapiens, NCI-H1975, 72 h) lay in the range of 10 to 100 nM; in test [2], 100 to 1000 nM; in test [3] it was 100 to 1000 nM.
As for `COc1cc(N2CCN(C(=O)CN3CCC(c4ccc(CN5CCC(=O)NC5=O)cc4)CC3)CC2)ccc1Nc1ncc(Cl)c(Nc2ccccc2C(C)=O)n1` [Compound T-337], the IC50 was in the range of 100 to 1000 nM in test [1] (Homo sapiens, NCI-H1975, 72 h); 100 to 1000 nM in test [2]; 100 to 1000 nM in test [3].
With `COc1cc(N2CCN(CC(=O)N3CCC(c4ccc(NC5CCC(=O)NC5=O)cc4)CC3)CC2)ccc1Nc1ncc(Cl)c(Nc2ccccc2C(C)=O)n1` (stereo not drawn) [Compound T-338], the IC50 in test [1] (Homo sapiens, NCI-H1975, 72 h) was 100 to 1000 nM; in test [2], 100 to 1000 nM; in test [3], 100 to 1000 nM.
With `CNC(=O)c1ccccc1Nc1nc(Nc2ccc(N3CCN(C(=O)CN4CCC(c5ccc(NC6CCC(=O)NC6=O)cc5)C(F)(F)C4)CC3)cc2OC)ncc1Br` (stereo not drawn) [Compound T-313], the IC50 in test [1] (Homo sapiens, NCI-H1975, 72 h) is at most 10 nM; in test [2], 10 to 100 nM; in test [3] it was 10 to 100 nM.
`COc1cc(N2CC3CN(C(=O)CN4CCC(c5ccc(NC6CCC(=O)NC6=O)cc5)CC4)CC3C2)ccc1Nc1ncc(Cl)c(Nc2ccccc2C(C)=O)n1` (stereo not drawn) [Compound T-188]: the IC50 in test [1] (Homo sapiens, NCI-H1975, 72 h) was in the range of 10 to 100 nM; in test [2], 100 to 1000 nM; in test [3], 100 to 1000 nM.
For the molecule `CNC(=O)c1ccccc1Nc1nc(Nc2cc(C(F)(F)F)c(N3CCN(C(=O)CN4CCC(c5ccc(NC6CCC(=O)NC6=O)cc5)CC4)CC3)cc2OC)ncc1Br` (stereo not drawn) [Compound T-292], the IC50 in test [1] (Homo sapiens, NCI-H1975, 72 h) is at most 10 nM; in test [2], 10 to 100 nM; in test [3], 10 to 100 nM.
Turning to `COc1cc(N2CCN(C(=O)CN3CCC(c4ccc(NC5CCC(=O)NC5=O)cc4)CC3)CC2)ccc1Nc1ncc(C(F)(F)F)c(Nc2ccccc2C(=O)Nc2ccccc2)n1` (stereo not drawn) [Compound T-267], the IC50 was in the range of 100 to 1000 nM in test [1] (Homo sapiens, NCI-H1975, 72 h); 100 to 1000 nM in test [2]; 100 to 1000 nM in test [3].
`COc1cc(N2CCN(C(=O)CN3CCC(c4ccc(NC5CCC(=O)NC5=O)cc4)CC3)CC2)ccc1Nc1ncc(Cl)c(Nc2ccccc2C(C)(C)O)n1` (stereo not drawn) [Compound T-196]: the IC50 was in the range of 10 to 100 nM in test [1] (Homo sapiens, NCI-H1975, 72 h); 100 to 1000 nM in test [2]; 100 to 1000 nM in test [3].
`COc1cc(N2CCN(C(=O)CN3CCC(c4ccc5c(cnn5C5CCC(=O)NC5=O)c4)CC3)CC2)ccc1Nc1ncc(Cl)c(Nc2ccccc2)n1` (stereo not drawn) [Compound T-326] gave an IC50 in test [1] (Homo sapiens, NCI-H1975, 72 h) of 100 to 1000 nM.
Turning to `COc1cc(N2CCN(CC(=O)NCCNc3cccc4c3C(=O)N(C3CCC(=O)NC3=O)C4=O)CC2)ccc1Nc1ncc(Cl)c(Nc2ccccc2C(C)=O)n1` (stereo not drawn) [Compound T-238], the IC50 in test [1] (Homo sapiens, NCI-H1975, 72 h) is 100 to 1000 nM.
Turning to `CCc1cc(Nc2ncc(Br)c(Nc3ccccc3C(=O)NC)n2)c(OC)cc1N1CCN(C(=O)CN2CCC(c3ccc(NC4CCC(=O)NC4=O)cc3)CC2)CC1` (stereo not drawn) [Compound T-362], in test [1] (Homo sapiens, NCI-H1975, 72 h), the IC50 lay within 10 to 100 nM.
On the same count and under the same terms, as for `COC(=O)c1ccccc1Nc1nc(Nc2ccc(N3CCN(C(=O)CN4CCC(c5ccc(NC6CCC(=O)NC6=O)cc5)CC4)CC3)cc2OC)ncc1Cl` (stereo not drawn) [Compound T-194], the figure is 100 to 1000 nM; as for `COc1cc(N2CCN(C(=O)CN3CCN(c4ccc5c(c4)C(=O)N(C4CCC(=O)NC4=O)C5=O)CC3)CC2)ccc1Nc1ncc(Cl)c(Nc2ccccc2C(C)=O)n1` (stereo not drawn) [Compound T-201], 100 to 1000 nM.
Consider `CCc1cc(Nc2ncc(Cl)c(Nc3ccccc3C(=O)NC)n2)c(OC)cc1N1CCN(C(=O)CN2CCC(c3ccc(NC4CCC(=O)NC4=O)cc3)CC2)CC1` (stereo not drawn) [Compound T-375], for which the IC50 in test [1] was in the range of 10 to 100 nM.
`CCc1cc(Nc2ncc(C(F)(F)F)c(Nc3ccccc3C(=O)NC)n2)c(OC)cc1N1CCN(C(=O)CN2CCC(c3ccc(NC4CCC(=O)NC4=O)cc3)CC2)CC1` (stereo not drawn) [Compound T-363] had an IC50 in test [1] (Homo sapiens, NCI-H1975, 72 h) of 10 to 100 nM.
For `CCNC(=O)c1ccccc1Nc1nc(Nc2ccc(N3CCN(C(=O)CN4CCC(c5ccc(NC6CCC(=O)NC6=O)cc5)CC4)CC3)cc2OC)ncc1Br` (stereo not drawn) [Compound T-374], in test [1] (Homo sapiens, NCI-H1975, 72 h), the IC50 lay in the range of 10 to 100 nM.
In turn, `COc1cc(N2CCN(CCCN3CCC(c4ccc(NC5CCC(=O)NC5=O)cc4)CC3)CC2)ccc1Nc1ncc(Cl)c(Nc2ccccc2C(C)=O)n1` (stereo not drawn) [Compound T-183] yielded an IC50 in test [1] (Homo sapiens, NCI-H1975, 72 h) of 100 to 1000 nM.
Regarding `COC(=O)Nc1ccccc1Nc1nc(Nc2ccc(N3CCN(C(=O)CN4CCC(c5ccc(NC6CCC(=O)NC6=O)cc5)CC4)CC3)cc2OC)ncc1Cl` (stereo not drawn) [Compound T-340], the IC50 in test [1] (Homo sapiens, NCI-H1975, 72 h) lay in the range of 100 to 1000 nM.
The same measure, in the same setting: as for `COc1cc(N2CCN(C(=O)C3CCN(CC4CCN(c5ccc6c(c5)C(=O)N(C5CCC(=O)NC5=O)C6=O)CC4)CC3)CC2)ccc1Nc1ncc(Cl)c(Nc2ccccc2C(C)=O)n1` (stereo not drawn) [Compound T-204], the figure is 100 to 1000 nM; as for `CCc1cc(Nc2ncc(Cl)c(Nc3ccccc3C(=O)NC)n2)c(OC)cc1N1CCN(C(=O)CN2CCC(c3ccc(NC4CCC(=O)NC4=O)cc3)CC2)CC1` (stereo not drawn) [Compound T-361], 10 to 100 nM; as for `COc1cc(N2CCN(C(=O)CNc3ccc4c(c3)C(=O)N(C3CCC(=O)NC3=O)C4=O)CC2)ccc1Nc1ncc(Cl)c(Nc2ccccc2C(C)=O)n1` (stereo not drawn) [Compound T-230], 100 to 1000 nM.
For the molecule `CCc1cc(Nc2ncc(Cl)c(Nc3ccccc3C(C)=O)n2)c(OC)cc1N1CCN(C(=O)CN2CCC(c3ccc(NC4CCC(=O)NC4=O)cc3)CC2)CC1` (stereo not drawn) [Compound T-378], the IC50 in test [1] (Homo sapiens, NCI-H1975, 72 h) was 10 to 100 nM.
In test [1] (Homo sapiens, NCI-H1975, 72 h), `COc1nc(N2CCN(C(=O)CN3CCC(c4ccc(NC5CCC(=O)NC5=O)cc4)CC3)CC2)ccc1Nc1ncc(Cl)c(Nc2ccccc2C(C)=O)n1` (stereo not drawn) [Compound T-208] gave an IC50 of 100 to 1000 nM.
As for `CNC(=O)c1ccccc1Nc1nc(Nc2cc(CC(F)(F)F)c(N3CCN(C(=O)CN4CCC(c5ccc(NC6CCC(=O)NC6=O)cc5)CC4)CC3)cc2OC)ncc1Br` (stereo not drawn) [Compound T-381], the IC50 in test [1] (Homo sapiens, NCI-H1975, 72 h) was in the range of 10 to 100 nM.
Consider `CNC(=O)c1ccccc1Nc1nc(Nc2cc(CC(F)(F)F)c(N3CCN(C(=O)CN4CCC(c5ccc(NC6CCC(=O)NC6=O)cc5)CC4)CC3)cc2OC)ncc1Cl` (stereo not drawn) [Compound T-377], for which the IC50 in test [1] (Homo sapiens, NCI-H1975, 72 h) is 10 to 100 nM.
On to `CNC(=O)c1ccccc1Nc1nc(Nc2cc(C)c(N3CCN(C(=O)CN4CCN(c5ccc(NC6CCC(=O)NC6=O)cc5)CC4)CC3)cc2OC)ncc1Cl` (stereo not drawn) [Compound T-364], for which the IC50 in test [1] (Homo sapiens, NCI-H1975, 72 h) lay in the range of 10 to 100 nM.
